The text below walks through data of patent US9376380B2 (University of Pittsburgh—Of the Commonwealth System of …, priority 2011, dated 2016).

Chain of CB2 receptor (P34972 whole entry): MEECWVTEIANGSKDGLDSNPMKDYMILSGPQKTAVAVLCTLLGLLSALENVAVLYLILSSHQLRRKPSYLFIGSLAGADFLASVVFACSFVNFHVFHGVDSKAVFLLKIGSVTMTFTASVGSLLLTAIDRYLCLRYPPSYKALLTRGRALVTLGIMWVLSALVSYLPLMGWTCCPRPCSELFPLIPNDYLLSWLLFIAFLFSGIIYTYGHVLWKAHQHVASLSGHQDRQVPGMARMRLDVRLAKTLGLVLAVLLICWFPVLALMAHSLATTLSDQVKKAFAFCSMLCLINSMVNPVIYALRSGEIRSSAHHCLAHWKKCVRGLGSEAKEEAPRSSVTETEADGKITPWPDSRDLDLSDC

One experiment has as its target CB2 receptor (Homo sapiens, UniProt P34972). Description: [3H]CP-55,940 radioligand competition binding, CB2.
Conditions: not given
Also on record: host or cells: cell membrane preparations. For orientation: Displacement assays read how much labelled ligand stays bound in the presence of the test substance.
The term Ki denotes the dissociation constant of the complex between target and ligand, obtained from inhibition or displacement. For `CCN(CC)c1ccc(CN(C23CC4CC(CC(C4)C2)C3)S(=O)(=O)c2ccc(C(C)C)cc2)cc1` [Compound 62, N-((3s,5s,7s)-Adamantan-1-yl)-N-(4-(diethylamino)benzyl)-4-isopropylbenzenesulfonamide], affinity was put at a Ki of 0.457 µM.

Still in this experiment, the particulars now being: Ki(CB1)/Ki(CB2) ratio.
Consider `O=C(Cc1ccc(Cl)cc1)NC(NC(=O)Cc1ccc(Cl)cc1)c1ccc(C(F)(F)F)cc1` [Compound 28, N,N′-((4-(trifluoromethyl)phenyl)methylene)bis(2-(4-chlorophenyl)acetamide)], for which the “SI: selectivity index for CB2” value is on record as more than 198. On the same count and under the same terms, the value for `COc1ccc(C(NC(=O)Cc2ccc(Cl)cc2)NC(=O)Cc2ccc(Cl)cc2)cc1` [Compound 26, N,N′-((4-methoxyphenyl)methylene)bis(2-(4-chlorophenyl)acetamide)] was more than 65. Still for that read-out and setting: the value for `O=C(Cc1ccc(Cl)cc1)NC(NC(=O)Cc1ccc(Cl)cc1)c1ccc(Cl)cc1` [Compound 24, N,N′-((4-chlorophenyl)methylene)bis(2-(4-chlorophenyl)acetamide)] was more than 130. Turning to `CCCCN(CCCC)c1ccc(C(NC(=O)Cc2ccccc2)NC(=O)Cc2ccccc2)cc1` [Compound 18, N,N′-((4-(dibutylamino)phenyl)methylene)bis(2-phenylacetamide)], the “SI: selectivity index for CB2” value is reported as more than 90. `COc1ccc(C(NC(=O)Cc2ccccc2)NC(=O)Cc2ccccc2)cc1` [Compound 10, N,N′-((4-methoxyphenyl)methylene)bis(2-phenylacetamide)]: the “SI: selectivity index for CB2” value was more than 26. As for `O=C(Cc1ccccc1)NC(NC(=O)Cc1ccccc1)c1ccc(C(F)(F)F)cc1` [Compound 14, N,N′-((4-(trifluoromethyl)phenyl)methylene)bis(2-phenylacetamide)], the “SI: selectivity index for CB2” value is reported as more than 34. The same measure, in the same setting: the value for `O=C(Cc1ccc(Cl)cc1)NC(NC(=O)Cc1ccc(Cl)cc1)c1ccccc1C(F)(F)F` [Compound 27, N,N′-((2-(trifluoromethyl)phenyl)methylene)bis(2-(4-chlorophenyl)acetamide)] was more than 127; that for `O=C(Cc1ccccc1)NC(NC(=O)Cc1ccccc1)c1ccc(N2CCCCC2)cc1` [Compound 19, N,N′-((4-(piperidin-1-yl)phenyl)methylene)bis(2-phenylacetamide)] was more than 34.

The same experiment, now with this note: [3H]CP-55,940 displacement; read-out: Ki (CB2).
Take `CCCCCCCC(=O)N(Cc1ccc(N(CC)CC)cc1)C12CC3CC(CC(C3)C1)C2` [Compound 64, N-((3s,5s,7s)-Adamantan-1-yl)-N-(4-(diethylamino)benzyl)octanamide]: the Ki was 0.638 µM. In the case of `CCN(CC)c1ccc(CN(c2ccc(C)cc2)S(=O)(=O)c2ccc(C)cc2)cc1` [Compound 94, N-(4-(Diethylamino)benzyl)-4-methyl-N-(p-tolyl)benzenesulfonamide], the Ki is 0.0054 µM.

Turning to `O=C(Cc1ccc(Cl)cc1)NC(NC(=O)Cc1ccc(Cl)cc1)c1ccc(C(F)(F)F)cc1` [Compound 28, N,N′-((4-(trifluoromethyl)phenyl)methylene)bis(2-(4-chlorophenyl)acetamide)], the Ki stood at 0.101 µM. Same read-out and setting: the value for `O=C(Cc1ccc(C(F)(F)F)cc1)NC(NC(=O)Cc1ccc(C(F)(F)F)cc1)c1ccccc1` [Compound 30, N,N′-(phenylmethylene)bis(2-(4-(trifluoromethyl)phenyl)acetamide)] was more than 20 µM. Turning to `COc1ccc(C(NC(=O)Cc2ccc(Cl)cc2)NC(=O)Cc2ccc(Cl)cc2)cc1` [Compound 26, N,N′-((4-methoxyphenyl)methylene)bis(2-(4-chlorophenyl)acetamide)], the Ki stood at 0.31 µM. For the compound `CCCCCC(NC(=O)Cc1ccccc1)NC(=O)Cc1ccccc1` [Compound 41, N,N′-(hexane-1,1-diyl)bis(2-phenylacetamide)], the Ki worked out at 18.2 µM.

In the case of `CCOc1ccc(C(NC(=O)Cc2ccccc2)NC(=O)Cc2ccccc2)cc1` [Compound 11, N,N′-((4-ethoxyphenyl)methylene)bis(2-phenylacetamide)], the Ki came to 1.5 µM.

Take `O=C(Cc1ccccc1)NC(NC(=O)Cc1ccccc1)c1ccc(F)cc1` [Compound 5, N,N′-((4-fluorophenyl)methylene)bis(2-phenylacetamide)]: the Ki came out at 10.9 µM.

For `O=C(Cc1ccc(Cl)cc1)NC(NC(=O)Cc1ccc(Cl)cc1)c1ccc(Cl)cc1` [Compound 24, N,N′-((4-chlorophenyl)methylene)bis(2-(4-chlorophenyl)acetamide)], the Ki stood at 0.154 µM. As to `CCCCCCCN(Cc1ccc(N(CC)CC)cc1)S(=O)(=O)c1cccc(C)c1` [Compound 68, N-(4-(Diethylamino)benzyl)-N-heptyl-3-methylbenzenesulfonamide], the inhibition constant Ki stood at 2.3 µM. The same measure, in the same setting: the same measure for `CCCCN(CCCC)c1ccc(C(NC(=O)Cc2ccccc2)NC(=O)Cc2ccccc2)cc1` [Compound 18, N,N′-((4-(dibutylamino)phenyl)methylene)bis(2-phenylacetamide)]: 0.221 µM. Still for that read-out and setting: the same measure for `O=C(Cc1ccc(Cl)cc1)NC(NC(=O)Cc1ccc(Cl)cc1)c1ccccc1F` [Compound 22, N,N′-((2-fluorophenyl)methylene)bis(2-(4-chlorophenyl)acetamide)]: 10.8 µM; for `O=C(Cc1ccc(C(F)(F)F)cc1)NC(NC(=O)Cc1ccc(C(F)(F)F)cc1)c1ccccc1F` [Compound 31, N,N′-((2-fluorophenyl)methylene)bis(2-(4-(trifluoromethyl)phenyl)acetamide)]: more than 20 µM; for `CCN(CC)c1ccc(CN(c2ccc(Cl)cc2)S(=O)(=O)c2ccc(C(C)C)cc2)cc1` [Compound 87, N-(4-Chlorophenyl)-N-(4-(diethylamino)benzyl)-4-isopropylbenzenesulfonamide]: 0.222 µM.

Take `CCCCCCCN(Cc1ccc(N(CC)CC)cc1)S(=O)(=O)CCCC` [Compound 75, N-(4-(Diethylamino)benzyl)-N-heptylbutane-1-sulfonamide]: the Ki was determined as 0.68 µM. On the same count and under the same terms, the same measure for `CCCCCCCN(Cc1ccc(N(CC)CC)cc1)S(=O)(=O)c1ccc(F)cc1` [Compound 72, N-(4-(Diethylamino)benzyl)-4-fluoro-N-heptylbenzenesulfonamide]: 1.1 µM; for `CCCCCCCN(Cc1ccc(N(CC)CC)cc1)C(=O)Cc1ccccc1` [Compound 76, N-(4-(Diethylamino)benzyl)-N-heptyl-2-phenylacetamide]: 1.31 µM. Same read-out and setting: the value for `O=C(Cc1ccc(Cl)cc1)NC(NC(=O)Cc1ccc(Cl)cc1)c1ccc(F)cc1` [Compound 23, N,N′-((4-fluorophenyl)methylene)bis(2-(4-chlorophenyl)acetamide)] was more than 20 µM. Consider `CCCCCCCN(Cc1ccc(N(CC)CC)cc1)S(=O)(=O)c1ccc(OC)cc1` [Compound 70, N-(4-(Diethylamino)benzyl)-N-heptyl-4-methoxybenzenesulfonamide], for which the Ki was found to be 5.19 µM.

On to `COc1ccc(C(NC(=O)Cc2ccc(C(F)(F)F)cc2)NC(=O)Cc2ccc(C(F)(F)F)cc2)cc1` [Compound 35, N,N′-((4-methoxyphenyl)methylene)bis(2-(4-(trifluoromethyl)phenyl)acetamide)], for which the Ki is more than 20 µM. Consider `COc1ccc(C(NC(=O)Cc2ccccc2)NC(=O)Cc2ccccc2)cc1` [Compound 10, N,N′-((4-methoxyphenyl)methylene)bis(2-phenylacetamide)], for which the Ki was 0.783 µM. Same read-out and setting: the same measure for `CCCCCCCC(=O)N(CCCCCCC)Cc1ccc(N(CC)CC)cc1` [Compound 80, N-(4-(Diethylamino)benzyl)-N-heptyloctanamide]: more than 20 µM. Same read-out and setting: the value for `CCCCCCCN(Cc1ccc(N(CC)CC)cc1)S(=O)(=O)c1ccc(Cl)cc1` [Compound 73, 4-Chloro-N-(4-(diethylamino)benzyl)-N-heptylbenzenesulfonamide] was 6.74 µM. Same read-out and setting: the same measure for `CCCCCCCN(Cc1ccc(N(CC)CC)cc1)C(=O)C1CCCCC1` [Compound 79, N-(4-(Diethylamino)benzyl)-N-heptylcyclohexanecarboxamide]: 0.212 µM; for `CCN(CC)c1ccc(CN(C23CC4CC(CC(C4)C2)C3)S(=O)(=O)c2ccc(OC)cc2)cc1` [Compound 59, N-(3r)-Adamantan-1-yl)-N-(4-(diethylamino)benzyl)-4-methoxybenzenesulfonamide]: 0.137 µM; for `O=C(Cc1ccccc1)NC(NC(=O)Cc1ccccc1)c1ccc(C(F)(F)F)cc1` [Compound 14, N,N′-((4-(trifluoromethyl)phenyl)methylene)bis(2-phenylacetamide)]: 0.596 µM. As to `O=C(Cc1ccc(C(F)(F)F)cc1)NC(NC(=O)Cc1ccc(C(F)(F)F)cc1)c1ccc(F)cc1` [Compound 32, N,N′-((4-fluorophenyl)methylene)bis(2-(4-(trifluoromethyl)phenyl)acetamide)], the inhibition constant (Ki) was more than 20 µM.

Consider `CCCCCCCN(Cc1ccc(N(CC)CC)cc1)C(=O)c1ccc(N(C)C)cc1` [Compound 78, N-(4-(Diethylamino)benzyl)-4-(dimethylamino)-N-heptylbenzamide], for which the Ki was 1.28 µM. Regarding `Cc1ccc(C(NC(=O)Cc2ccc(C(F)(F)F)cc2)NC(=O)Cc2ccc(C(F)(F)F)cc2)cc1` [Compound 34, N,N′-(p-tolylmethylene)bis(2-(4-(trifluoromethyl)phenyl)acetamide)], the Ki was more than 20 µM.

Regarding `CCCCCCCN(Cc1ccc(N(CC)CC)cc1)S(=O)(=O)c1ccc(OC(C)C)cc1` [Compound 71, N-(4-(Diethylamino)benzyl)-N-heptyl-4-isopropoxybenzenesulfonamide], the Ki was more than 20 µM. The same measure, in the same setting: the value for `O=C(Cc1ccccc1)NC(NC(=O)Cc1ccccc1)c1cccc(F)c1` [Compound 4, N,N′-((3-fluorophenyl)methylene)bis(2-phenylacetamide)] was 12.7 µM; that for `O=C(Cc1ccccc1)NC(NC(=O)Cc1ccccc1)c1ccccc1F` [Compound 3, N,N′-((2-fluorophenyl)methylene)bis(2-phenylacetamide)] was 35.3 µM; that for `CCCCCCCN(Cc1ccc(N(CC)CC)cc1)S(=O)(=O)c1ccc(C(C)C)cc1` [Compound 69, N-(4-(Diethylamino)benzyl)-N-heptyl-4-isopropylbenzenesulfonamide] was 13 µM. The same measure, in the same setting: the value for `O=C(Cc1ccccc1)NC(NC(=O)Cc1ccccc1)c1ccc([N+](=O)[O-])cc1` [Compound 15, N,N′-((4-nitrophenyl)methylene)bis(2-phenylacetamide)] was more than 20 µM.

On to `O=C(Cc1ccc(Cl)cc1)NC(NC(=O)Cc1ccc(Cl)cc1)c1ccccc1C(F)(F)F` [Compound 27, N,N′-((2-(trifluoromethyl)phenyl)methylene)bis(2-(4-chlorophenyl)acetamide)], for which the Ki was found to be 0.158 µM. Same read-out and setting: the same measure for `O=C(Cc1ccccc1)NC(NC(=O)Cc1ccccc1)c1ccc(N2CCCCC2)cc1` [Compound 19, N,N′-((4-(piperidin-1-yl)phenyl)methylene)bis(2-phenylacetamide)]: 0.595 µM; for `O=C(Cc1ccccc1)NC(NC(=O)Cc1ccccc1)c1ccccc1` [Compound 2, N,N′-(phenylmethylene)bis(2-phenylacetamide)]: 9.93 µM. On the same count and under the same terms, the same measure for `O=C(Cc1ccc(Cl)cc1)NC(NC(=O)Cc1ccc(Cl)cc1)c1ccccc1` [Compound 21, N,N′-(phenylmethylene)bis(2-(4-chlorophenyl)acetamide)]: more than 20 µM; for `O=C(Cc1ccccc1)NC(/C=C/c1ccccc1)NC(=O)Cc1ccccc1` [Compound 39, (E)-N,N′-(3-phenylprop-2-ene-1,1-diyl)bis(2-phenylacetamide)]: 5.68 µM; for `CCCCCCCN(Cc1ccc(N(CC)CC)cc1)S(=O)(=O)Cc1ccccc1` [Compound 74, N-(4-(Diethylamino)benzyl)-N-heptyl-1-phenylmethanesulfonamide]: 0.273 µM.

In the case of `CCN(CC)c1ccc(CNc2ccc(Cl)cc2)cc1` [G, 4-(((4-Chlorophenyl)amino)methyl)-N,N′-diethylaniline], the Ki was 6.74 µM.
